In patent US8343696B2, “Colored curable composition, fluorine-containing dipyrromethene compound and tautomer thereof, and fluorine-containing dipyrromethene metal complex and tautomer thereof, and color filter using the same and method for producing the color filter” (FUJIFILM Corporation, priority 2008, dated 2013):

Tests used:
Format in all cases: physicochemical
[1] = Storage stability of colored resist solution (precipitation after one month at room temperature); parameters: key: A: No precipitation was observed; B: Slight precipitation was observed; C: Precipitation was observed; details: negative-working colored resist solution, visual precipitation
Excerpt: 9.4 g of the resist solution obtained in section 1 above and 0.35 g of the exemplary compound Ia-12 synthesized above (a compound represented by Formula (4): dipyrromethene complex compound) were mixed and dissolved, whereby a colored resist solution (a negative-working ultraviolet-sensitive colored curable composition) was obtained.
The colored resist solution was stored for one month at room temperature, and then degree of precipitation was visually observed. The storage stability was evaluated according to the following criteria.
A: No precipitation was observed
B: Slight precipitation was observed
C: Precipitation was observed

[2] = Heat resistance of coating film (color difference ΔEab before and after heating); details: 100° C. for 1 hour on hot plate
Description: A glass substrate having undercoat layer formed by applying the colored resin composition obtained in section 3 above was heat-treated at 100° C. for 1 hour using a hot plate, and the color difference (ΔEab) between before and after the heating was determined by using a […] MCPD-1000 (trade name, manufactured by Otsuka Electronics Co., Ltd.). The heat resistance was evaluated according to the following criteria. A smaller AEab value indicates better heat resistance.
(§1) A: ΔEab value was less than 6
(§2) B: ΔEab value was from 6 to 10
(§3) C: ΔEab value was more than 10

[3] = Light-fastness of coating film (color difference ΔEab before and after xenon lamp irradiation); details: xenon lamp 20,000 luxes for 10 hours (200,000 lux·h)
Description: A glass substrate having undercoat layer formed by applying the colored resin composition obtained in section 3 above was irradiated with a xenon lamp at an intensity of 20,000 luxes for 10 hours (equivalent to 200,000 lux·h), and the color difference ΔEab between before and after the irradiation was determined. The light-fastness was evaluated according to the following criteria. A smaller ΔEab value indicates better light-fastness.
as §1, §2, §3

[4] = Transmittance at 450 nm of the color filter; details: negative-working colored resist, 1.0 μm film; transmittance at λmax normalized to 2%
Description: The colored resist solution obtained in section 3 above was applied to an undercoat layer side of the glass substrate having an undercoat layer obtained in section 2 above by a spin coater such that a film thickness was 1.0 μm. Subsequently, the film was pre-baked at 100° C. for 120 sec, whereby a monochromatic color filter was obtained.
The transmission spectrum of the color filter obtained above was measured, and the transmittance at 450 nm was evaluated according to the following criteria. The transmittance of the color filter at 450 nm was evaluated by correcting (normalizing) the transmittance at the maximum absorption wavelength of the colorant included in the color filter to 2%. A larger transmittance indicates greater transmission of blue light, which indicates favorable magenta or violet color that can be used in a blue filter.
A: Transmittance at 450 nm was 90% or more
B: Transmittance at 450 nm was 80% or more but not more than 90%
C: Transmittance at 450 nm was not more than 80%

[5] = Absorption spectrum in ethyl acetate solution (spectrophotometer UV-2400PC)
Description: In consideration of film thickness, the molar absorption coefficient of the specific metal complex compounds-1, -2, -3 and -4 of the invention is preferably as high as possible, and 60,000 or higher is preferable. The maximum absorption wavelength (λmax) thereof is preferably from 520 nm to 580 nm, and more preferably from 530 nm to 570 nm, in order to improve color purity. The maximum absorption wavelength and the molar absorption coefficient are determined by using a spectrophotometer UV-2400PC (manufactured by Shimadzu Corporation).
The molar absorption coefficient (ε) of each of the obtained compounds was measured in an ethyl acetate solution using a spectrophotometer (trade name: UV-2400PC; manufactured by Shimadzu Corporation). The absorbance (Abs) at 450 nm was evaluated by normalizing the absorbance at a maximum absorption wavelength (λmax) to 1.0. […] The measurement results of the absorbance (Abs value), maximum absorption wavelength (λmax), and molar absorption coefficient (ε) are shown in Table 1.
By the method similar to the reaction scheme in Synthesis Example 1 above, the exemplary compounds (dipyrromethene metal complex compounds or tautomers thereof) shown in Table 1 were synthesized. The identification of the compounds and the measurement of the maximum absorption wavelength (λmax) and the molar absorption coefficient (ε) of the compounds were performed similarly to Synthesis Example 1 above.

Row | SMILES | Storage stability [1] | Heat resistance [2] | Light-fastness [3] | Transmittance at 450 nm [4] | maximum absorption wavelength (λmax) [5] | molar absorption coefficient (ε) [5] | Abs value at 450 nm when normalized to Abs = 1.0 at λmax [5]
1 | CC1CC(C(C)(C)C)C(OC(=O)c2c(-c3ccccc3)c(C=C3N=C(NC(=O)C(C)(C)C)C(C#N)=C3c3ccccc3)[n]([Zn][OH])c2NC(=O)c2cccc(C(F)(F)F)c2)C(C(C)(C)C)C1 (stereo not drawn) [Ib-14] | A | A (ΔEab value was less than 6) | A (ΔEab value was less than 6) | A (Transmittance at 450 nm was 90% or more) | 561 nm | 85,200 | 0.0105
2 | CC1=C(C(=O)OC2C(C(C)(C)C)CC(C)CC2C(C)(C)C)C(NC(=O)c2ccc(C(F)(F)F)cc2F)=[N+]2C1=Cc1c(C)c(C(=O)OC3C(C(C)(C)C)CC(C)CC3C(C)(C)C)c(NC(=O)c3ccc(C(F)(F)F)cc3F)[n]1[Zn-]2[OH] (stereo not drawn) [IIa-15] | B | A (ΔEab value was less than 6) | A (ΔEab value was less than 6) | A (Transmittance at 450 nm was 90% or more) | 550 nm | 116,700 | 0.0095
3 | Cc1c(C(=O)OC2C(C(C)(C)C)CC(C)CC2C(C)(C)C)c(NC(=O)c2ccc(F)c(F)c2)[n]2c1C=C1C(c3ccccc3)=C(C#N)C(NC(=O)C(C)Sc3cc(C(=O)O)cc(C(=O)O)c3)=[N+]1[Zn-]2[OH] (stereo not drawn) [Ia-35] | A | A (ΔEab value was less than 6) | A (ΔEab value was less than 6) | A (Transmittance at 450 nm was 90% or more) | 559 nm | 90,100 | 0.0106
4 | CC1CC(C(C)(C)C)C(OC(=O)c2c(-c3ccccc3)c3[n](c2NC(=O)c2cccc(C(F)(F)F)c2)[Zn-]([OH])[N+]2=C(NC(=O)C(C)SCCCS(=O)(=O)[O-])C(C#N)=C(c4ccccc4)C2=C3)C(C(C)(C)C)C1.[Na+] (stereo not drawn) [Ib-20] | A | B (ΔEab value was from 6 to 10) | B (ΔEab value was from 6 to 10) | A (Transmittance at 450 nm was 90% or more) | 563 nm | 88,700 | 0.0142
5 | Cc1c(C(=O)OC2C(C(C)(C)C)CC(C)CC2C(C)(C)C)c(NC(=O)c2cc(F)cc(F)c2)[n]2c1C=C1C(c3ccccc3)=C(C#N)C(NC(=O)C(C)Sc3cc(C(=O)O)cc(C(=O)O)c3)=[N+]1[Zn-]2[OH] (stereo not drawn) [Ia-38] | A | A (ΔEab value was less than 6) | A (ΔEab value was less than 6) | A (Transmittance at 450 nm was 90% or more) | 558 nm | 79,400 | 0.0191
6 | CC1CC(C(C)(C)C)C(OC(=O)C2=C(c3ccccc3)C3=Cc4c(-c5ccccc5)c(C(=O)OC5C(C(C)(C)C)CC(C)CC5C(C)(C)C)c(NC(=O)c5ccc(OC(F)(F)F)cc5)[n]4[Zn-]([OH])[N+]3=C2NC(=O)c2ccc(OC(F)(F)F)cc2)C(C(C)(C)C)C1 (stereo not drawn) [IIb-8] | A | A (ΔEab value was less than 6) | A (ΔEab value was less than 6) | A (Transmittance at 450 nm was 90% or more) | 561 nm | 92,600 | 0.0135
7 | CC1=C(C(=O)OC2C(C(C)(C)C)CC(C)CC2C(C)(C)C)C(NC(=O)c2c(F)c(F)c(O)c(F)c2F)=[N+]2C1=Cc1c(C)c(C(=O)OC3C(C(C)(C)C)CC(C)CC3C(C)(C)C)c(NC(=O)c3c(F)c(F)c(O)c(F)c3F)[n]1[Zn-]2[OH] (stereo not drawn) [IIa-39] | A | A (ΔEab value was less than 6) | A (ΔEab value was less than 6) | A (Transmittance at 450 nm was 90% or more) | 553 nm | 109,400 | 0.0119
8 | CC1CC(C(C)(C)C)C(OC(=O)C2=C(c3ccccc3)C3=Cc4c(-c5ccccc5)c(C(=O)OC5C(C(C)(C)C)CC(C)CC5C(C)(C)C)c(NC(=O)c5cc(F)ccc5NS(C)(=O)=O)[n]4[Zn-]([OH])[N+]3=C2NC(=O)c2cc(F)ccc2NS(C)(=O)=O)C(C(C)(C)C)C1 (stereo not drawn) [IIb-20] | A | A (ΔEab value was less than 6) | A (ΔEab value was less than 6) | A (Transmittance at 450 nm was 90% or more) | 565 nm | 121,000 | 0.082
9 | CC1CC(C(C)(C)C)C(OC(=O)C2=C(c3ccccc3)C3=Cc4c(-c5ccccc5)c(C(=O)OC5C(C(C)(C)C)CC(C)CC5C(C)(C)C)c(NC(=O)c5c(F)c(F)c(C(=O)O)c(F)c5F)[n]4[Zn-]([OH])[N+]3=C2NC(=O)c2c(F)c(F)c(C(=O)O)c(F)c2F)C(C(C)(C)C)C1 (stereo not drawn) [IIb-38] | A | A (ΔEab value was less than 6) | A (ΔEab value was less than 6) | A (Transmittance at 450 nm was 90% or more) | 561 nm | 105,900 | 0.0099
10 | CC1CC(C(C)(C)C)C(OC(=O)c2c(-c3ccccc3)c(C=C3N=C(NC(=O)CCCSc4cc(C(=O)O)cc(C(=O)O)c4)C(C#N)=C3c3ccccc3)[n]([Zn][OH])c2NC(=O)c2cc(F)cc(F)c2F)C(C(C)(C)C)C1 (stereo not drawn) [Ib-59] | A | A (ΔEab value was less than 6) | A (ΔEab value was less than 6) | A (Transmittance at 450 nm was 90% or more) | 559 nm | 93,900 | 0.0083
11 | CC1CC(C(C)(C)C)C(OC(=O)C2=C(c3ccccc3)C3=Cc4c(-c5ccccc5)c(C(=O)OC5C(C(C)(C)C)CC(C)CC5C(C)(C)C)c(NC(=O)c5ccc(C(F)(F)F)cc5)[n]4[Zn-]([OH])[N+]3=C2NC(=O)c2ccc(C(F)(F)F)cc2)C(C(C)(C)C)C1 (stereo not drawn) [IIb-7] | A | A (ΔEab value was less than 6) | A (ΔEab value was less than 6) | A (Transmittance at 450 nm was 90% or more) | 563 nm | 97,100 | 0.0123
12 | CC1CC(C(C)(C)C)C(OC(=O)c2c(-c3ccccc3)c(C=C3N=C(NC(=O)C(C)SCCCS(=O)(=O)[O-])C(C#N)=C3c3ccccc3)[n]([Zn][OH])c2NC(=O)c2cc(F)cc(F)c2)C(C(C)(C)C)C1.[Na+] (stereo not drawn) [Ib-40] | A | B (ΔEab value was from 6 to 10) | B (ΔEab value was from 6 to 10) | A (Transmittance at 450 nm was 90% or more) | 562 nm | 95,600 | 0.0082
